The record followed here is patent US9650377B2, “Diazepinone derivatives” (Novartis AG, priority 2012, dated 2017).

One assay has as its target human mGluR5a receptors (Homo sapiens (Human), UniProt P41594). In words: Inhibition of glutamate-induced elevation of intracellular calcium in L(tk−) cells expressing human mGluR5a receptors. The assay is classed as cell-based. Particulars: read-out: mGluR5 IC50. From the text:
Activity of compounds of the present invention was examined by determination to what extent the glutamate-induced elevation of the intracellular calcium concentration in L(tk−) cells expressing human mGluR5a receptors (see L. P. Daggett et al., Neuropharm. Vol. 34, pages 871-886, 1995) is inhibited by utilizing methods as described e.g. by L. P. Daggett et al., Neuropharm. Vol. 34, pages 871-886 (1995) and P. J. Flor et al., J. Neurochem. Vol. 67, pages 58-63 (1996).
Activity of compounds of the present invention with respect to mGluR1 antagonism was examined by an assay based on measurements of L-glutamate induced intracellular calcium increases using a 96 well plate-based Fluorometric Imaging Plate Reader (FLIPR), and CHO cells stably expressing human mGluR1.

Another assay has as its target human mGluR1 (Homo sapiens (Human), UniProt Q13255). In words: mGluR1 antagonism: L-glutamate induced intracellular calcium increases, FLIPR, CHO cells stably expressing human mGluR1. The assay is classed as cell-based. Particulars: inhibition of glutamate-induced elevation of intracellular calcium. From the text: Activity of compounds of the present invention with respect to mGluR1 antagonism was examined by an assay based on measurements of L-glutamate induced intracellular calcium increases using a 96 well plate-based Fluorometric Imaging Plate Reader (FLIPR), and CHO cells stably expressing human mGluR1. L-glutamate induced robust calcium responses via human mGluR1 in a concentration-dependent manner and in the low micromolar range. The table below represents IC50 values of the inhibition of the glutamate-induced elevation of the intracellular calcium concentration.

Sequence of human mGluR1 (Q13255 19-1194): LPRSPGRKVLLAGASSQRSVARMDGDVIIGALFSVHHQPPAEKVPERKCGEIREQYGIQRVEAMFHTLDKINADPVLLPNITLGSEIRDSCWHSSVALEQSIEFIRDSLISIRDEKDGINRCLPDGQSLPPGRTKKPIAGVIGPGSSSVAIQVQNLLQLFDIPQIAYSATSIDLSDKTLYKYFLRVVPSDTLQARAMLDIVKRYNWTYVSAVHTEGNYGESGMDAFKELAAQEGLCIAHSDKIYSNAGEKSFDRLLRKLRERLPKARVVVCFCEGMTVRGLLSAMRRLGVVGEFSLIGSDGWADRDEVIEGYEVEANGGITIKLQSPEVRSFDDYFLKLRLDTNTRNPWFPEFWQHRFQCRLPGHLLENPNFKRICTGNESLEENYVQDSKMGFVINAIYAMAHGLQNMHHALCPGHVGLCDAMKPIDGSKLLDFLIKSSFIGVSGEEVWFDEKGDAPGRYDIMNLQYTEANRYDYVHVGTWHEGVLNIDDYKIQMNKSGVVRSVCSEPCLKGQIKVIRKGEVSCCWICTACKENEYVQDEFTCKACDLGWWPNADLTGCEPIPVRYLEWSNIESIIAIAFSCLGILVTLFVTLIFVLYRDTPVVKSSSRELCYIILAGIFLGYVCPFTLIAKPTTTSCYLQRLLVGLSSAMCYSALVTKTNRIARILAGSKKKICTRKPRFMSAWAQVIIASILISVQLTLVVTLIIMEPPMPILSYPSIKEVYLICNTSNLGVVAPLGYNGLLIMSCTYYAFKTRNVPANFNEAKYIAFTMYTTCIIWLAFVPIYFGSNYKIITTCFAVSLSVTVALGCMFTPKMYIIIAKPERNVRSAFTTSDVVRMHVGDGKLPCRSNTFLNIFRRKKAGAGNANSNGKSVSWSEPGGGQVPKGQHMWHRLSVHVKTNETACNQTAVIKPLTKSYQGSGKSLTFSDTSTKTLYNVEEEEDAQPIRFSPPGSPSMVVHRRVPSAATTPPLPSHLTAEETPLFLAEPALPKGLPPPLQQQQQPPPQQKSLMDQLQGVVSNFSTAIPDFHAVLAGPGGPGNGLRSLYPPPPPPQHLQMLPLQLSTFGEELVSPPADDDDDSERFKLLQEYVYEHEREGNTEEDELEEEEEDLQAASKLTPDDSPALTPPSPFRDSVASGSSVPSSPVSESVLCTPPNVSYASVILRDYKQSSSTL
Sequence of human mGluR5a receptors (P41594 other isoform, or with tags, fused parts or gaps): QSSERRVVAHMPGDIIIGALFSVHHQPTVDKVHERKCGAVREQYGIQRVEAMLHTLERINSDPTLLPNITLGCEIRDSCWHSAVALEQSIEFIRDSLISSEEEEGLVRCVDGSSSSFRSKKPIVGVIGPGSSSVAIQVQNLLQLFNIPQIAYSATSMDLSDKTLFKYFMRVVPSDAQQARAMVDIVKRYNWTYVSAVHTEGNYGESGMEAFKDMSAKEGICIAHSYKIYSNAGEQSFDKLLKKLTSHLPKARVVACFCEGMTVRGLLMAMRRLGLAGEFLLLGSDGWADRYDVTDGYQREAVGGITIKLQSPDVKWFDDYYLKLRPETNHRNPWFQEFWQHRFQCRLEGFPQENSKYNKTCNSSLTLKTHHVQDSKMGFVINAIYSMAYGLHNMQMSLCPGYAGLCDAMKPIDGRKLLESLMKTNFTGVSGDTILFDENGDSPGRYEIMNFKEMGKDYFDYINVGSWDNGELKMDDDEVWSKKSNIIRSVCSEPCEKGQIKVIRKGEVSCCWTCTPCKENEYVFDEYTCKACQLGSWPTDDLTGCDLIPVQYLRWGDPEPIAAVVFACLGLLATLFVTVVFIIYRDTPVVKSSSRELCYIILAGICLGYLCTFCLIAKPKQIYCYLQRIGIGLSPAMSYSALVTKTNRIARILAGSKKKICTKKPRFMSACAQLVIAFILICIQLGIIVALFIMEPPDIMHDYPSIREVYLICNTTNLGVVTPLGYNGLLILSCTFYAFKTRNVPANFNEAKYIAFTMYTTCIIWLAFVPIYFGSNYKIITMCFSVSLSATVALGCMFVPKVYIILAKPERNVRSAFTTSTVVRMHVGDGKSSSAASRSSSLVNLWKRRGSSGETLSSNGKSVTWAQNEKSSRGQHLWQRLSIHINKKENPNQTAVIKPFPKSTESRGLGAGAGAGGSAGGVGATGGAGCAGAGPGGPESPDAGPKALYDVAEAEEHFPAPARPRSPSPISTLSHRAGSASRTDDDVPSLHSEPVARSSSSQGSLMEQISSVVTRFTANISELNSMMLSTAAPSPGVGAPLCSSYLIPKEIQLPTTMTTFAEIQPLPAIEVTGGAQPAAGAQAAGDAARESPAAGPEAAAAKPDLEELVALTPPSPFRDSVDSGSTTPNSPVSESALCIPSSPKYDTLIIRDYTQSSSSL

On to `CCc1cn(C2=NCC(=O)N3CCc4c(cccc4C(C)O)C3=C2)cn1` (racemic) [Example 115, 2-(4-ethyl-1H-imidazol-1-yl)-9-(1-hydroxyethyl)-7,8-dihydro-[1,4]diazepino[7,1-a]isoquinolin-5(4H)-one], for which the values for the IC50 at human mGluR5a receptors and on human mGluR1 were 0.495 µM and > 10 µM, respectively.

With `Cn1cc(C2=NCC(=O)N3CCc4c(I)cccc4C3=C2)cn1` [Example 32, 9-iodo-2-(1-methyl-1H-pyrazol-4-yl)-7,8-dihydro-[1,4]diazepino[7,1-a]isoquinolin-5(4H)-one], the IC50 at human mGluR5a receptors turned out to be 0.01 µM; on human mGluR1, 0.035 µM.

For `CCOCc1cn(C2=NCC(=O)N3CCc4c(cccc4-c4nc(C)cs4)C3=C2)cn1` [Example 88i, 2-(4-(ethoxymethyl)-1H-imidazol-1-yl)-9-(4-methylthiazol-2-yl)-7,8-dihydro-[1,4]diazepino[7,1-a]isoquinolin-5(4H)-one], the IC50 on human mGluR5a receptors was 0.34 µM; at human mGluR1 it was > 10 µM.

With `Cc1nc(-c2cccc3c2CCN2C(=O)CN=C(n4cnc(C5CCC5)c4)C=C32)co1` [Example 108b, 2-(4-cyclobutyl-1H-imidazol-1-yl)-9-(2-methyloxazol-4-yl)-7,8-dihydro-[1,4]diazepino[7,1-a]isoquinolin-5(4H)-one], the IC50 at human mGluR5a receptors was 0.023 µM; at human mGluR1 it was 1.92 µM.
